Results on one compound are retold here after article PMC5218480 (PLoS ONE, 2017).

The assay concerns MV-4-11 cells. Nature of the assay: Gene expression microarray analysis (Affymetrix PrimeView) and GSEA. It is filed as cell-based, human. On the set-up: RFU PODN (11730768_x_at) / Fold change /veh PODN (11730768_x_at) / RFU LINC00158 (11744669_a_at) / Fold change /veh LINC00158 (11744669_a_at) / RFU DUSP10 (11751237_a_at) / Fold change /veh DUSP10 (11751237_a_at) / RFU ID3 (11757404_x_at) / Fold change /veh ID3 (11757404_x_at) / RFU PLEKHG5 (11737974_s_at) / Fold change /veh PLEKHG5 (11737974_s_at) / RFU LRRC4B (11730491_at) / Fold change /veh LRRC4B (11730491_at) / RFU GIMAP4 (11747438_a_at) / Fold change /veh GIMAP4 (11747438_a_at) / RFU KRT8 (11758183_x_at) / Fold change /veh KRT8 (11758183_x_at) / RFU CNN1 (11734310_a_at) / Fold change /veh CNN1 (11734310_a_at) / RFU VPS37D (11726825_at) / Fold change /veh VPS37D (11726825_at) / RFU C10orf10 (11716522_x_at) / Fold change /veh C10orf10 (11716522_x_at) / RFU KIR2DL2 /// KIR2DL4 /// KIR2DL5A /// KIR2DL5B /// KIR2DS1 /// KIR2DS2 /// KIR2DS3 /// KIR2DS4 /// KIR3DL3 /// KIR3DL3 /// KIR3DS1 (11738374_at) / Fold change /veh KIR2DL2 /// KIR2DL4 /// KIR2DL5A /// KIR2DL5B /// KIR2DS1 /// KIR2DS2 /// KIR2DS3 /// KIR2DS4 /// KIR3DL3 /// KIR3DL3 /// KIR3DS1 (11738374_at) / RFU C1QL1 (11718748_at) / Fold change /veh C1QL1 (11718748_at) / RFU TMPRSS4 (11747572_a_at) / Fold change /veh TMPRSS4 (11747572_a_at) / RFU HAMP (11756126_x_at) / Fold change /veh HAMP (11756126_x_at) / RFU RNFT2 (11725882_a_at) / Fold change /veh RNFT2 (11725882_a_at) / RFU NR4A2 (11747474_a_at) / Fold change /veh NR4A2 (11747474_a_at) / RFU ABCC12 (11746883_a_at) / Fold change /veh ABCC12 (11746883_a_at) / RFU TMEM136 (11760407_x_at) / Fold change /veh TMEM136 (11760407_x_at) / RFU CLDN22 /// WWC2 (11732394_at) / Fold change /veh CLDN22 /// WWC2 (11732394_at) / RFU HLA-DPB1 (11760878_x_at) / Fold change /veh HLA-DPB1 (11760878_x_at) / RFU SPINT1 (11716480_a_at) / Fold change /veh SPINT1 (11716480_a_at) / RFU GAP43 (11754022_s_at) / Fold change /veh GAP43 (11754022_s_at) / RFU A4GNT (11735810_at) / Fold change /veh A4GNT (11735810_at) / RFU PRB3 (11715151_x_at) / Fold change /veh PRB3 (11715151_x_at) / RFU TUBB4B (11761932_at) / Fold change /veh TUBB4B (11761932_at) / RFU CAPN14 (11732068_a_at) / Fold change /veh CAPN14 (11732068_a_at) / RFU TMCC2 (11721928_a_at) / Fold change /veh TMCC2 (11721928_a_at) / RFU IRGQ (11745062_a_at) / Fold change /veh IRGQ (11745062_a_at) / RFU FAM174B (11720279_a_at) / Fold change /veh FAM174B (11720279_a_at) / RFU TMPRSS4 (11748680_a_at) / Fold change /veh TMPRSS4 (11748680_a_at) / RFU FAM212B (11763350_a_at) / Fold change /veh FAM212B (11763350_a_at) / RFU PLEKHG5 (11743358_a_at) / Fold change /veh PLEKHG5 (11743358_a_at) / RFU ZSCAN30 (11745921_a_at) / Fold change /veh ZSCAN30 (11745921_a_at) / RFU CMKLR1 (11741424_a_at) / Fold change /veh CMKLR1 (11741424_a_at) / RFU LOC101060620 /// MAPK8IP1 (11723275_at) / Fold change /veh LOC101060620 /// MAPK8IP1 (11723275_at) / RFU SPTSSB (11747773_x_at) / Fold change /veh SPTSSB (11747773_x_at) / RFU PRSS12 (11739890_at) / Fold change /veh PRSS12 (11739890_at) / RFU BIN1 (11741810_x_at) / Fold change /veh BIN1 (11741810_x_at) / RFU WNT11 (11732464_a_at) / Fold change /veh WNT11 (11732464_a_at) / RFU C10orf10 (11716521_a_at) / Fold change /veh C10orf10 (11716521_a_at) / RFU C5orf56 (11738089_at) / Fold change /veh C5orf56 (11738089_at) / RFU CYB561 (11721691_x_at) / Fold change /veh CYB561 (11721691_x_at) / RFU ANKRD19P (11752326_a_at) / Fold change /veh ANKRD19P (11752326_a_at) / RFU OR2T12 /// OR2T33 /// OR2T8 (11738714_s_at) / Fold change /veh OR2T12 /// OR2T33 /// OR2T8 (11738714_s_at) / RFU VCAN (11748164_a_at) / Fold change /veh VCAN (11748164_a_at) / RFU JSRP1 (11732532_at) / Fold change /veh JSRP1 (11732532_at) / RFU KRTAP10-11 (11738290_x_at) / Fold change /veh KRTAP10-11 (11738290_x_at) / RFU MYO3A (11730013_a_at) / Fold change /veh MYO3A (11730013_a_at) / RFU EBF3 (11725865_a_at) / Fold change /veh EBF3 (11725865_a_at) / RFU CAMK2N1 (11719241_x_at) / Fold change /veh CAMK2N1 (11719241_x_at) / RFU C5orf56 (11738088_a_at) / Fold change /veh C5orf56 (11738088_a_at) / RFU OLFML3 (11715873_a_at) / Fold change /veh OLFML3 (11715873_a_at) / RFU LOC100653217 /// NTM (11731650_a_at) / Fold change /veh LOC100653217 /// NTM (11731650_a_at) / RFU MAPK11 (11762145_a_at) / Fold change /veh MAPK11 (11762145_a_at) / RFU FIZ1 (11724087_x_at) / Fold change /veh FIZ1 (11724087_x_at) / RFU OASL (11726364_x_at) / Fold change /veh OASL (11726364_x_at) / RFU SOX15 (11748057_x_at) / Fold change /veh SOX15 (11748057_x_at) / RFU CD79A (11719716_a_at) / Fold change /veh CD79A (11719716_a_at) / RFU HIST1H1D (11736915_at) / Fold change /veh HIST1H1D (11736915_at) / RFU CASKIN2 (11723855_a_at) / Fold change /veh CASKIN2 (11723855_a_at) / RFU LOC730098 (11760151_x_at) / Fold change /veh LOC730098 (11760151_x_at) / RFU OR4N2 (11742367_at) / Fold change /veh OR4N2 (11742367_at) / RFU PRRT2 (11749266_a_at) / Fold change /veh PRRT2 (11749266_a_at) / RFU SNX32 (11753110_a_at) / Fold change /veh SNX32 (11753110_a_at) / RFU CDHR5 (11726645_a_at) / Fold change /veh CDHR5 (11726645_a_at) / RFU RCAN1 (11760418_a_at) / Fold change /veh RCAN1 (11760418_a_at) / RFU FAM167A (11723789_a_at) / Fold change /veh FAM167A (11723789_a_at) / RFU FAM26E (11764081_at) / Fold change /veh FAM26E (11764081_at) / RFU ISYNA1 (11749810_s_at) / Fold change /veh ISYNA1 (11749810_s_at) / RFU ACY1 (11761880_at) / Fold change /veh ACY1 (11761880_at) / RFU 11764098_at / Fold change /veh 11764098_at / RFU SAMD14 (11745864_x_at) / Fold change /veh SAMD14 (11745864_x_at) / RFU NPB (11741838_a_at) / Fold change /veh NPB (11741838_a_at) / RFU TMPRSS6 (11731388_a_at) / Fold change /veh TMPRSS6 (11731388_a_at) / RFU KRTAP10-2 (11738614_at) / Fold change /veh KRTAP10-2 (11738614_at) / RFU ARHGAP8 /// PRR5-ARHGAP8 (11727945_x_at) / Fold change /veh ARHGAP8 /// PRR5-ARHGAP8 (11727945_x_at) / RFU KRTAP5-7 /// NADSYN1 (11734609_at) / Fold change /veh KRTAP5-7 /// NADSYN1 (11734609_at) / RFU RASL12 (11751679_a_at) / Fold change /veh RASL12 (11751679_a_at) / RFU CDKN2B (11736163_a_at) / Fold change /veh CDKN2B (11736163_a_at) / RFU PRF1 (11729649_at) / Fold change /veh PRF1 (11729649_at) / RFU, ZNF638 /// ZNF638-IT1 / Fold change vs veh, ZNF638 /// ZNF638-IT1 / RFU, PANK3 / Fold change vs veh, PANK3 / RFU, SH3YL1 / Fold change vs veh, SH3YL1 / RFU, ZEB2 / Fold change vs veh, ZEB2 / RFU, NRIP1 / Fold change vs veh, NRIP1 / RFU, PTTG1IP / Fold change vs veh, PTTG1IP / RFU, CAPN2 / Fold change vs veh, CAPN2 / RFU, MED14 / Fold change vs veh, MED14 / RFU, SNORA58 / Fold change vs veh, SNORA58 / RFU, C1orf63 / Fold change vs veh, C1orf63 / RFU, LRRFIP1 / Fold change vs veh, LRRFIP1 / RFU, NDUFAF7 / Fold change vs veh, NDUFAF7 / RFU, SLC12A2 / Fold change vs veh, SLC12A2 / RFU, IBTK / Fold change vs veh, IBTK / RFU, ESF1 / Fold change vs veh, ESF1 / Fold change vs veh, TMEM50B / RFU, TAOK1 / Fold change vs veh, TAOK1 / RFU, ACBD3 / Fold change vs veh, ACBD3 / RFU, TMA16 / Fold change vs veh, TMA16 / RFU, RWDD3 / Fold change vs veh, RWDD3 / RFU, BCAT1 / Fold change vs veh, BCAT1 / RFU, EDEM3 / Fold change vs veh, EDEM3 / RFU, TMEM33 / Fold change vs veh, TMEM33 / RFU, WDR75 / Fold change vs veh, WDR75 / RFU, AHCTF1 / Fold change vs veh, AHCTF1 / RFU, TFRC / Fold change vs veh, TFRC / RFU, ZDHHC17 / Fold change vs veh, ZDHHC17 / RFU, NOM1 / Fold change vs veh, NOM1 / RFU, ARL8B / Fold change vs veh, ARL8B / RFU, ZBTB11 / Fold change vs veh, ZBTB11 / RFU, TAMM41 / Fold change vs veh, TAMM41 / RFU, KIAA1704 /// LOC100996395 / Fold change vs veh, KIAA1704 /// LOC100996395 / RFU, ING1 / Fold change vs veh, ING1 / RFU, TRMT61B / Fold change vs veh, TRMT61B / RFU, FUBP3 / Fold change vs veh, FUBP3 / RFU, TP53 / Fold change vs veh, TP53 / RFU, TNKS2 / Fold change vs veh, TNKS2 / RFU, ZFP14 / Fold change vs veh, ZFP14 / RFU, ACTR2 / Fold change vs veh, ACTR2 / RFU, PPP3R1 / Fold change vs veh, PPP3R1 / RFU, PIK3R1 / Fold change vs veh, PIK3R1 / RFU, HNRNPA1 / Fold change vs veh, HNRNPA1 / RFU, RNF170 / Fold change vs veh, RNF170 / RFU, ZNF28 / Fold change vs veh, ZNF28 / RFU, RNGTT / Fold change vs veh, RNGTT / RFU, OGT / Fold change vs veh, OGT / RFU, BRD1 / Fold change vs veh, BRD1 / RFU, MARS / Fold change vs veh, MARS / RFU, ZNF655 / Fold change vs veh, ZNF655 / RFU, FAHD1 / Fold change vs veh, FAHD1 / RFU, BDP1 / Fold change vs veh, BDP1 / RFU, LRRCC1 / Fold change vs veh, LRRCC1 / RFU, ARID1A / Fold change vs veh, ARID1A / RFU, ZNF146 / Fold change vs veh, ZNF146 / RFU, ZNF330 / Fold change vs veh, ZNF330 / RFU, GPN3 / Fold change vs veh, GPN3 / RFU, C9orf123 / Fold change vs veh, C9orf123 / RFU, N4BP2L2 / Fold change vs veh, N4BP2L2 / RFU, ARFIP1 / Fold change vs veh, ARFIP1 / RFU, FAM179B / Fold change vs veh, FAM179B / RFU, BCL10 / Fold change vs veh, BCL10 / RFU, UHRF1BP1L / Fold change vs veh, UHRF1BP1L / RFU, BET1 / Fold change vs veh, BET1 / RFU, CNOT2 / Fold change vs veh, CNOT2 / RFU, ZNF268 / Fold change vs veh, ZNF268 / Fold change vs veh, ZNF507 / RFU, DGCR2 / Fold change vs veh, DGCR2 / RFU, WDSUB1 / Fold change vs veh, WDSUB1 / Fold change vs veh, HSP90B1 /// MIR3652 / RFU, ADSS / Fold change vs veh, ADSS / RFU, GK / Fold change vs veh, GK / RFU, ZNF148 / Fold change vs veh, ZNF148 / RFU, TAF9 / Fold change vs veh, TAF9 / RFU, SLC1A5 / Fold change vs veh, SLC1A5 / RFU, SLMO2 / Fold change vs veh, SLMO2 / RFU, ABCC4 / Fold change vs veh, ABCC4 / RFU, LOC101060439 /// RAP1B / Fold change vs veh, LOC101060439 /// RAP1B / RFU, RFX7 / Fold change vs veh, RFX7 / RFU, GTPBP10 / Fold change vs veh, GTPBP10 / RFU, CNEP1R1 / Fold change vs veh, CNEP1R1 / RFU, BIVM-ERCC5 /// ERCC5 / Fold change vs veh, BIVM-ERCC5 /// ERCC5 / RFU, ILF3 / Fold change vs veh, ILF3 / RFU 11762660_at / Fold change /veh 11762660_at / RFU VCAN (11757783_s_at) / Fold change /veh VCAN (11757783_s_at) / RFU DDX43 (11728927_at) / Fold change /veh DDX43 (11728927_at) / RFU KRT8 (11758188_x_at) / Fold change /veh KRT8 (11758188_x_at) / RFU NKD1 (11759106_at) / Fold change /veh NKD1 (11759106_at) / RFU SRD5A1 (11742802_a_at) / Fold change /veh SRD5A1 (11742802_a_at) / RFU TPSAB1 /// TPSB2 (11721975_s_at) / Fold change /veh TPSAB1 /// TPSB2 (11721975_s_at) / RFU GSTM3 (11746129_a_at) / Fold change /veh GSTM3 (11746129_a_at) / RFU IL23R (11737362_x_at) / Fold change /veh IL23R (11737362_x_at) / RFU TMEM51 (11727254_a_at) / Fold change /veh TMEM51 (11727254_a_at) / RFU PIWIL2 (11732686_x_at) / Fold change /veh PIWIL2 (11732686_x_at) / RFU ORM1 (11744905_x_at) / Fold change /veh ORM1 (11744905_x_at) / RFU CCDC152 (11743942_at) / Fold change /veh CCDC152 (11743942_at) / RFU ECM1 (11717891_a_at) / Fold change /veh ECM1 (11717891_a_at) / RFU IL23R (11748794_a_at) / Fold change /veh IL23R (11748794_a_at) / RFU TNFAIP8L3 (11732012_x_at) / Fold change /veh TNFAIP8L3 (11732012_x_at) / RFU MBOAT4 (11741988_at) / Fold change /veh MBOAT4 (11741988_at) / RFU 11764193_at / Fold change /veh 11764193_at / RFU TMEM53 (11763286_at) / Fold change /veh TMEM53 (11763286_at) / RFU MAGEB2 (11727129_at) / Fold change /veh MAGEB2 (11727129_at) / RFU TMEM200A (11744735_a_at) / Fold change /veh TMEM200A (11744735_a_at) / RFU CCDC152 (11751479_a_at) / Fold change /veh CCDC152 (11751479_a_at) / RFU FAM211A (11726209_a_at) / Fold change /veh FAM211A (11726209_a_at) / RFU RGS16 (11746705_a_at) / Fold change /veh RGS16 (11746705_a_at) / RFU VCAN (11755009_s_at) / Fold change /veh VCAN (11755009_s_at) / RFU RHOB (11743442_s_at) / Fold change /veh RHOB (11743442_s_at) / RFU RGS16 (11720943_a_at) / Fold change /veh RGS16 (11720943_a_at) / RFU RGS16 (11720944_at) / Fold change /veh RGS16 (11720944_at) / RFU, VPS4B / Fold change vs veh, VPS4B / RFU, CREB1 / Fold change vs veh, CREB1 / RFU, DNAJC13 / Fold change vs veh, DNAJC13 / RFU, GNAQ / Fold change vs veh, GNAQ / RFU, CDK5R1 / Fold change vs veh, CDK5R1 / RFU, ZRANB3 / Fold change vs veh, ZRANB3 / RFU, CUL4A / Fold change vs veh, CUL4A / RFU, CCNY / Fold change vs veh, CCNY / RFU, UFL1 / Fold change vs veh, UFL1 / RFU, COG3 / Fold change vs veh, COG3 / RFU, DIAPH2 / Fold change vs veh, DIAPH2 / RFU, SKA2 / Fold change vs veh, SKA2 / RFU, AFF3 / Fold change vs veh, AFF3 / RFU, LMF1 / Fold change vs veh, LMF1 / RFU, IPO11 / Fold change vs veh, IPO11 / RFU, DFFB / Fold change vs veh, DFFB / RFU, FOXP1 / Fold change vs veh, FOXP1 / RFU, CARD8 / Fold change vs veh, CARD8 / RFU, STRN3 / Fold change vs veh, STRN3 / RFU, ADK / Fold change vs veh, ADK / RFU, RASSF2 / Fold change vs veh, RASSF2 / RFU, WIPF1 / Fold change vs veh, WIPF1 / RFU, LARP1B / Fold change vs veh, LARP1B / RFU, RASA1 / Fold change vs veh, RASA1 / RFU, RB1 / Fold change vs veh, RB1 / RFU, PPFIA1 / Fold change vs veh, PPFIA1 / RFU, MAT2A / Fold change vs veh, MAT2A / RFU, CCT5 / Fold change vs veh, CCT5 / RFU, WDR92 / Fold change vs veh, WDR92 / RFU, CUX1 / Fold change vs veh, CUX1 / RFU, TTC7A / Fold change vs veh, TTC7A / RFU, TMEM135 / Fold change vs veh, TMEM135 / RFU, DEPTOR / Fold change vs veh, DEPTOR / RFU, CPM / Fold change vs veh, CPM / RFU, DNAJB6 / Fold change vs veh, DNAJB6 / RFU, CACNA2D3 / Fold change vs veh, CACNA2D3 / RFU, DTX4 / Fold change vs veh, DTX4 / RFU, TFCP2 / Fold change vs veh, TFCP2 / RFU, GMCL1 /// GMCL1P1 / Fold change vs veh, GMCL1 /// GMCL1P1 / RFU, AEBP2 / Fold change vs veh, AEBP2 / RFU, SNHG1 /// SNORD22 /// SNORD25 /// SNORD26 /// SNORD27 /// SNORD28 /// SNORD29 /// SNORD31 / Fold change vs veh, SNHG1 /// SNORD22 /// SNORD25 /// SNORD26 /// SNORD27 /// SNORD28 /// SNORD29 /// SNORD31 / Fold change (Aza/veh), C12orf56 (ProbeSet 11735607_a_at) / Fold change (ACY-1035/veh), C12orf56 (ProbeSet 11735607_a_at) / Fold change (Aza/veh), FGFR1OP (ProbeSet 11751329_s_at) / Fold change (ACY-1035/veh), FGFR1OP (ProbeSet 11751329_s_at) / Fold change (Aza/veh), VPS36 (ProbeSet 11739960_a_at) / Fold change (ACY-1035/veh), VPS36 (ProbeSet 11739960_a_at) / RFU SYPL1 (11715823_x_at) / Fold change /veh SYPL1 (11715823_x_at) / RFU IGFBP7 (11715501_s_at) / Fold change /veh IGFBP7 (11715501_s_at) / RFU REEP3 (11722064_at) / Fold change /veh REEP3 (11722064_at) / RFU IGLL1 (11728026_x_at) / Fold change /veh IGLL1 (11728026_x_at): dose or concentration left out as unconfirmed. To be noted: MV-4-11 cells, 48 hours.

`Nc1ccc(-c2cccs2)cc1NC(=O)c1ccc2c(c1)cc(C1CC1)n2CCN1CCOCC1` [ACY-1035]: the “Fold change /veh CNN1 (11734310_a_at)” value is 1.19.
